Results reported in patent US20070219236A1, “Dialkoxy-Imidazopyridines Derivatives” (Atlanta Pharma AG, priority 2004, published 2007).

Each molecule was assayed on pentagastrin-stimulated acid secretion of the perfused rat stomach (assay: Secretion-inhibiting action on the perfused rat stomach (pentagastrin-stimulated acid secretion)). Conditions: anesthetized CD rat, female; dose 2 μmol/kg i.d. (intraduodenal); pentagastrin 1 μg/kg i.v. continuous infusion.
Format: in vivo
Source text: Testing of the Secretion-Inhibiting Action on the Perfused Rat Stomach
In Table A which follows, the influence of the compounds according to the invention on the pentagastrin-stimulated acid secretion of the perfused rat stomach after intraduodenal administration in vivo is shown.
The abdomen of anesthetized rats (CD rat, female, 200-250 g; 1.5 g/kg i.m. urethane) was opened after tracheotomy by a median upper abdominal incision and a PVC catheter was fixed transorally in the esophagus and another via the pylorus such that the ends of the tubes just projected into the gastric lumen. The catheter leading from the pylorus led outward into the right abdominal wall through a side opening.
After thorough rinsing (about 50-100 ml), warm (37° C.) physiological NaCl solution was continuously passed through the stomach (0.5 ml/min, pH 6.8-6.9; Braun-Unita I). The pH (pH meter 632, glass electrode EA 147; Φ=5 mm, Metrohm) and, by titration with a freshly prepared 0.01N NaOH solution to pH 7 (Dosimat 665 Metrohm), the secreted HCl were determined in the effluent in each case collected at an interval of 15 minutes.
The gastric secretion was stimulated by continuous infusion of 1 μg/kg (=1.65 ml/h) of i.v. pentagastrin (left femoral vein) about 30 min after the end of the operation (i.e. after determination of 2 preliminary fractions). The substances to be tested were administered intraduodenally in a 2.5 ml/kg liquid volume 60 min after the start of the continuous pentagastrin infusion.
The body temperature of the animals was kept at a constant 37.8-38° C. by infrared irradiation and heat pads (automatic, stepless control by means of a rectal temperature sensor).
COc1ccc2nc([S@+]([O-])Cc3nccc(OC)c3OC)[nH]c2n1 [Example 3, (R)-2-(3,4-Dimethoxy-pyridine-2-ylmethanesulfinyl)-5-methoxy-3H-imidazo[4,5-b]pyridine] was tested, and the “Inhibition of acid secretion (%)” value was over 50%. COc1ccc2nc([S+]([O-])Cc3nccc(OC)c3OC)[nH]c2n1 (stereo not drawn) [Example 1, 2-(3,4-Dimethoxy-pyridine-2-ylmethanesulfinyl)-5-methoxy-3H-imidazo[4,5-b]pyridine] was tested, and the “Inhibition of acid secretion (%)” value was over 50%. For COc1ccc2nc([S@@+]([O-])Cc3nccc(OC)c3OC)[nH]c2n1 [Example 2, (S)-2-(3,4-Dimethoxy-pyridine-2-ylmethanesulfinyl)-5-methoxy-3H-imidazo[4,5-b]pyridine], the “Inhibition of acid secretion (%)” value was over 50%.
